Reference: patent publication US7786141B2 (Vertex Pharmaceuticals Incorporated, priority 2004, dated 2010)
Read-outs that look alike come from different tables or passages of the source.

What was measured:
M1 muscarinic receptor = target: T1, M1 muscarinic receptor (Homo sapiens, UniProt P11229); test: Functional mobilization of intracellular calcium (FLIPR) in M1-CHO cells; assay type: cell-based
T1 construct: expressed in transfected cells; host or cells: CHO (M1-CHO)
T1 sequence (P11229 1-460): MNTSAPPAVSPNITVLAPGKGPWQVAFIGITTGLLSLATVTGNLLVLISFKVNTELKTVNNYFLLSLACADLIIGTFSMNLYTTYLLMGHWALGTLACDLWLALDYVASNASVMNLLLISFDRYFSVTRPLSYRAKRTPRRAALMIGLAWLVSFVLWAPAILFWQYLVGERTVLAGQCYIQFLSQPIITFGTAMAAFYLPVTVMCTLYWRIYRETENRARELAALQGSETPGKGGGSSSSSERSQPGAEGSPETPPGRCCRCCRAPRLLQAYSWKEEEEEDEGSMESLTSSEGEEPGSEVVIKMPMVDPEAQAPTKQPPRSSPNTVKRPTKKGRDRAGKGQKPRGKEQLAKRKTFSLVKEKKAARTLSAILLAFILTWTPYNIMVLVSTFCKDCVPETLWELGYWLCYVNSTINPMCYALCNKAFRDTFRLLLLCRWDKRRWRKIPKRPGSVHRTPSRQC
Procedure, shortened: (§1)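 Measured via Fluo-3 fluorescence on a FLIPR, CHO cells with either muscarinic subtype received compound in 0.5% DMSO. Antagonism was assessed after 15 min pre-incubation followed by carbachol at each subtype's EC80; agonism from compound addition alone.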

M4 muscarinic receptor = target: T2, M4 muscarinic receptor (Homo sapiens, UniProt P08173); test: Functional mobilization of intracellular calcium (FLIPR) in M4-CHO cells; assay type: cell-based
T2 construct: expressed in transfected cells; host or cells: CHO (M4-CHO)
T2 sequence (P08173 1-479): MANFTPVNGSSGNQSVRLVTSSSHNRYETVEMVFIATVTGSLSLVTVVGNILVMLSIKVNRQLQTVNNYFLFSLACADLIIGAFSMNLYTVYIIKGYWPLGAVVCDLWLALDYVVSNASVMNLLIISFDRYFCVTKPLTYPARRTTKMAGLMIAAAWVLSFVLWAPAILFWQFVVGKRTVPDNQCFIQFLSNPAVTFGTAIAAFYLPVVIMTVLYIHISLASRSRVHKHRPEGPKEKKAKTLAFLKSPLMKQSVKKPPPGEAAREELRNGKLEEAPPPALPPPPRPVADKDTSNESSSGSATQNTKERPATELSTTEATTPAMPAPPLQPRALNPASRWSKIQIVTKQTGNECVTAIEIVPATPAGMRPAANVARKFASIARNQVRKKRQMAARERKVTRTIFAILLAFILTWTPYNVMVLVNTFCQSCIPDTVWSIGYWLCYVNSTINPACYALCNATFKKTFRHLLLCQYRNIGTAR
Procedure, shortened: as §1

[1] = M1 receptor, calcium mobilization
[2] = M1 receptor, calcium mobilization, read-out: M1 Efficacy
[3] = M4 receptor, calcium mobilization
[4] = M4 receptor, calcium mobilization, read-out: M4 Efficacy
[5] = Table 4, 100% efficacy is the maximum response obtained with the Carbachol control
[6] = Table 4, modulating M1 receptor
[7] = Table 4, modulating M4 receptor
[8] = Table 4, M1 receptor, calcium mobilization (FLIPR)
[9] = Table 4, M4 receptor, calcium mobilization (FLIPR)
[10] = 100% efficacy is the maximum response obtained with the Carbachol control, Table 5

SMILES | Emax (M1 muscarinic receptor; [5]) [%] | M1 Activity (M1 muscarinic receptor; [6]) | Emax (M4 muscarinic receptor; [5]) [%] | M4 Activity (M4 muscarinic receptor; [7]) | further results
CCOC(=O)N1CCC(CN2CCC3(CC2)CC(=O)Nc2ccccc23)CC1 [compound 34] | – | – | – | – | M1 Activity (M1 muscarinic receptor; [1]): xxx (activity was measured to be less than 0.1 μM); Emax (M1 muscarinic receptor; [2]): 65 to 85%; M4 Activity (M4 muscarinic receptor; [3]): xx (activity was measured to be between 0.1 μM and 1.0 μM); Emax (M4 muscarinic receptor; [4]): > 85%
Clc1ccc2c(c1)C1(CCN(C3CC4CCC(C4)C3)CC1)CN2 (stereo not shown) [compound 85] | – | – | – | – | M1 Activity (M1 muscarinic receptor; [1]): xxx (activity was measured to be less than 0.1 μM); Emax (M1 muscarinic receptor; [2]): 65 to 85%; M4 Activity (M4 muscarinic receptor; [3]): xx (activity was measured to be between 0.1 μM and 1.0 μM); Emax (M4 muscarinic receptor; [4]): 65 to 85%
CN(C)C(=O)N1CC2(CCN(C[C@@H]3CCN(C(=O)OCC(F)F)C3)CC2)c2cc(F)ccc21 [compound 625] | 25 to 100 | xxx (activity was measured to be less than 2.0 μM) | > 100 | xxx (activity was measured to be less than 2.0 μM) | –
CN(C)C(=O)N1C2CCC1CC(N1CCC3(CC1)COc1ccc(F)cc13)C2 (stereo not shown) [compound 203] | – | – | – | – | M1 Activity (M1 muscarinic receptor; [1]): xxx (activity was measured to be less than 0.1 μM); Emax (M1 muscarinic receptor; [2]): 65 to 85%; M4 Activity (M4 muscarinic receptor; [3]): xx (activity was measured to be between 0.1 μM and 1.0 μM); Emax (M4 muscarinic receptor; [4]): < 65%
CCOC(=O)N1CCC(N2CCC3(CC2)C[C@H](NC(C)=O)c2cc(OC)c(OC)cc23)CC1 [compound 774] | 25 to 100 | x (activity was measured to be greater than 5.0 μM) | 25 to 100 | x (activity was measured to be greater than 5.0 μM) | –
COC(=O)N1CC[C@@H](CN2CCC3(CC2)CN(C(=O)N(C)C)c2ccc(F)cc23)C1 [compound 540] | 25 to 100 | xxx (activity was measured to be less than 2.0 μM) | 25 to 100 | xxx (activity was measured to be less than 2.0 μM) | –
CN(C)C(=O)N1CC2(CCN(C3CCN(C(=O)OCC(F)(F)F)CC3)CC2)c2cc(F)ccc21 [compound 938] | 25 to 100 | – | 25 to 100 | – | M1 Activity (M1 muscarinic receptor; [8]): xxx (activity was measured to be less than 2.0 μM); M4 Activity (M4 muscarinic receptor; [9]): xxx (activity was measured to be less than 2.0 μM)
CN(C)C(=O)N1CC2(CCN(C3CCN(c4ccsc4)CC3)CC2)c2cc(F)ccc21 [compound 1041] | – | – | – | – | Emax (M1 muscarinic receptor; [10]): 25 to 100%; EC50 (M1 muscarinic receptor; CHO cells expressing M1, calcium mobilization, Table 5): 2 to 10 µM; Emax (M4 muscarinic receptor; [10]): 25 to 100%; EC50 (M4 muscarinic receptor; CHO cells expressing M4, calcium mobilization, Table 5): 2 to 10 µM
CCOC(=O)N1CCC(N2CCC3(CC2)CN(C(C)=O)c2c(-c4ccsc4)cccc23)CC1 [compound 956] | 25 to 100 | – | < 25 | – | M1 Activity (M1 muscarinic receptor; [8]): x (activity was measured to be greater than 5.0 μM); M4 Activity (M4 muscarinic receptor; [9]): x (activity was measured to be greater than 5.0 μM)
CN(C)C(=O)N[C@H]1CC2(CCN([C@@H]3CC4CC[C@@H]3C4)CC2)c2ccccc21 [compound 1005] | < 25 | – | 25 to 100 | – | M1 Activity (M1 muscarinic receptor; [8]): x (activity was measured to be greater than 5.0 μM); M4 Activity (M4 muscarinic receptor; [9]): xxx (activity was measured to be less than 2.0 μM)
CN(C)C(=O)N1CC2(CCN(C3CCN(c4nccnc4C#N)CC3)CC2)c2cc(F)ccc21 [compound 497] | 25 to 100 | xx (activity was measured to be between 2.0 μM and 5.0 μM) | 25 to 100 | xx (activity was measured to be between 2.0 μM and 5.0 μM) | –
CC(=O)N1CCC(N2CCC3(CC2)CN(C(=O)N(C)C)c2ccc(F)cc23)CC1 [compound 880] | < 25 | – | < 25 | – | M1 Activity (M1 muscarinic receptor; [8]): x (activity was measured to be greater than 5.0 μM); M4 Activity (M4 muscarinic receptor; [9]): x (activity was measured to be greater than 5.0 μM)
CC(=O)NC1CC2(CCN(C3CCN(C(=O)c4cccc(C(F)(F)F)c4)CC3)CC2)c2ccccc21 (stereo not shown) [compound 978] | < 25 | – | < 25 | – | M1 Activity (M1 muscarinic receptor; [8]): x (activity was measured to be greater than 5.0 μM); M4 Activity (M4 muscarinic receptor; [9]): x (activity was measured to be greater than 5.0 μM)
CCOC(=O)N1CCC(N2CCC3(CC2)CN(C2CCC(=O)CC2)c2ccccc23)CC1 [compound 472] | > 100 | xxx (activity was measured to be less than 2.0 μM) | 25 to 100 | xxx (activity was measured to be less than 2.0 μM) | –
CCCOC(=O)N1CCCC(N2CCC3(CC2)CN(C(=O)N(C)C)c2ccc(F)cc23)CC1 (stereo not shown) [compound 749] | 25 to 100 | xxx (activity was measured to be less than 2.0 μM) | 25 to 100 | xxx (activity was measured to be less than 2.0 μM) | –
CCOC(=O)N1CCC(N2CCC3(CC2)CN(C(C)=O)c2ccc(C(F)(F)F)cc23)CC1 [compound 603] | 25 to 100 | xxx (activity was measured to be less than 2.0 μM) | 25 to 100 | xxx (activity was measured to be less than 2.0 μM) | –
CCOC(=O)N1C2CCC1CC(N1CCC3(CC1)CN(S(C)(=O)=O)c1ccc(F)cc13)C2 (stereo not shown) [compound 103] | – | – | – | – | M1 Activity (M1 muscarinic receptor; [1]): xxx (activity was measured to be less than 0.1 μM); Emax (M1 muscarinic receptor; [2]): 65 to 85%; M4 Activity (M4 muscarinic receptor; [3]): xx (activity was measured to be between 0.1 μM and 1.0 μM); Emax (M4 muscarinic receptor; [4]): < 65%
CN(C)C(=O)N1CC2(CCN(C[C@H]3CCN(C(=O)OCC(F)F)C3)CC2)c2cc(F)ccc21 [compound 848] | 25 to 100 | – | > 100 | – | M1 Activity (M1 muscarinic receptor; [8]): xxx (activity was measured to be less than 2.0 μM); M4 Activity (M4 muscarinic receptor; [9]): xxx (activity was measured to be less than 2.0 μM)
CCOC(=O)N[C@@H]1CC2(CCN(C[C@H]3C[C@H]4CC[C@H]3C4)CC2)c2ccccc21 [compound 275] | – | – | – | – | M1 Activity (M1 muscarinic receptor; [1]): xxx (activity was measured to be less than 0.1 μM); Emax (M1 muscarinic receptor; [2]): 65 to 85%; M4 Activity (M4 muscarinic receptor; [3]): xx (activity was measured to be between 0.1 μM and 1.0 μM); Emax (M4 muscarinic receptor; [4]): > 85%
CS(=O)(=O)N1CC2(CCN(C3CC4CCC(C3)N4C(=O)OC3CCC3)CC2)c2cc(F)ccc21 (stereo not shown) [compound 122] | – | – | – | – | M1 Activity (M1 muscarinic receptor; [1]): xxx (activity was measured to be less than 0.1 μM); Emax (M1 muscarinic receptor; [2]): 65 to 85%; M4 Activity (M4 muscarinic receptor; [3]): xx (activity was measured to be between 0.1 μM and 1.0 μM); Emax (M4 muscarinic receptor; [4]): < 65%
Cc1ncc(N2CCC(N3CCC4(CC3)CN(C(=O)N(C)C)c3ccc(F)cc34)CC2)nc1C [compound 762] | 25 to 100 | xxx (activity was measured to be less than 2.0 μM) | 25 to 100 | xxx (activity was measured to be less than 2.0 μM) | –
CCOC(=O)N1CCC(N2CCC3(CC2)C(=O)Nc2ccccc23)CC1 [compound 191] | – | – | – | – | M1 Activity (M1 muscarinic receptor; [1]): xxx (activity was measured to be less than 0.1 μM); Emax (M1 muscarinic receptor; [2]): 65 to 85%; M4 Activity (M4 muscarinic receptor; [3]): x (activity was measured to be greater than 1.0 μM); Emax (M4 muscarinic receptor; [4]): 65 to 85%
COC(=O)N1CCC(CN2CCC3(CC2)CN(C(C)=O)c2ccc(C)cc23)CC1 [compound 423] | – | – | – | – | EC50 (M1 muscarinic receptor; M1-CHO cells, calcium mobilization (FLIPR)): 0.1 to 1 µM; Emax (M1 muscarinic receptor; M1-CHO cells, calcium mobilization (FLIPR), read-out: M1 Efficacy): < 65%; EC50 (M4 muscarinic receptor; M4-CHO cells, calcium mobilization (FLIPR)): > 1 µM; Emax (M4 muscarinic receptor; M4-CHO cells, calcium mobilization (FLIPR), read-out: M4 Efficacy): < 65%
CN(C)C(=O)N1CC2(CCN(C3CCNCC3)CC2)c2cc(F)ccc21 [compound 685] | < 25 | x (activity was measured to be greater than 5.0 μM) | 25 to 100 | xxx (activity was measured to be less than 2.0 μM) | –
CC(=O)N[C@H]1CCC2(CCN(CC3CC4C=CC3C4)CC2)c2ccccc21 (stereo partly shown) [compound 740] | 25 to 100 | xxx (activity was measured to be less than 2.0 μM) | 25 to 100 | xxx (activity was measured to be less than 2.0 μM) | –
